The record followed here is ChEMBL document CHEMBL1201862, “PubChem BioAssay data set” (2004).

Experiment in all cases: NCI tumour cell line growth inhibition, 48 h
Assay [1] deals with NCI-H23.
Assay [2] has as its system SK-MEL-5.
Assay [3] has as its system SK-MEL-28.
For assay [4], the system named is LOX IMVI.
Assay [5] relates to HCT-15.
Assay [6] deals with ACHN.
In assay [7] the test system is UACC-257.
Assay [8] has as its system SF-268.
Assay [9] deals with OVCAR-8.
The test system of assay [10] is SK-MEL-2.
The subject of assay [11] is OVCAR-3.
The test system of assay [12] is SK-OV-3.
Assay [13] relates to TK-10.
Assay [14] relates to U-251.
For assay [15], the system named is SW-620.
Assay [16] concerns UO-31.
Assay [17] has as its system HT-29.
Assay [18] deals with SF-295.
In assay [19] the test system is UACC-62.
For assay [20], the system named is HCT-116.

SMILES strings stand for the structures.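 A five-concentration, 48-hour dose response in 96-well plates underlies each endpoint, interpolated linearly between surrounding concentrations. GI50 marks 50% less growth.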 The source made the active and inactive calls. Rule as the data show it: active = GI50 up to about 1.1 µM and inactive = higher. Bounds are passed on as bounds.

Take `NC(CCCCCP(=O)(c1ccccc1)C1C=CC=CC1)C(=O)O` (stereo not given): the GI50 is > 100 µM (inactive) in assay [1]; > 100 µM (inactive) in [2]; > 100 µM (inactive) in [3]; > 100 µM (inactive) in assay [4]; > 100 µM in [5]; > 100 µM (inactive) in assay [6]. The GI50 in assay [7], in assay [8], in [9], in [10], in [11] and in assay [12] was > 100 µM (inactive) throughout. Further, the GI50 in assay [13], in [14], in assay [15], in assay [16], in [17] and in assay [18] was > 100 µM (inactive) in each case. Moreover, the GI50 in [19] is 51.2 µM (inactive); in assay [20], > 100 µM (inactive).

Consider `CCOC(=O)C12CCC(=O)C=C1[C@@H](C)C(=O)CC2` (stereo not given in full), for which the GI50 was > 100 µM (inactive) in [1]; > 100 µM (inactive) in assay [2]; > 100 µM (inactive) in assay [3]; > 100 µM (inactive) in assay [4]; > 100 µM in [5]; > 100 µM (inactive) in [6]. Also, the GI50 in assay [7], in assay [8], in [9], in assay [10], in [11] and in assay [12] was > 100 µM (inactive) throughout. In addition, the GI50 in assay [13], in assay [14], in assay [15], in assay [16], in [17] and in assay [18] was > 100 µM (inactive) in each case. In addition, the GI50 in assay [19] and in [20] was > 100 µM (inactive) throughout.

With `NCc1ccccc1C1CSCSC1`, the GI50 is > 100 µM (inactive) in [1]; > 100 µM (inactive) in assay [2]; > 100 µM (inactive) in assay [3]; > 100 µM (inactive) in assay [4]; > 100 µM in [5]; > 100 µM (inactive) in [6]. For the same compound, the GI50 in assay [7], in [8], in assay [9], in assay [10], in [11] and in assay [12] was > 100 µM (inactive) in each case. For the same compound, the GI50 in assay [13], in assay [14], in assay [15], in assay [16], in assay [17] and in assay [18] was > 100 µM (inactive) in each case. Moreover, the GI50 in assay [19] and in assay [20] was > 100 µM (inactive) throughout.
